Experimental findings from ChEMBL document CHEMBL1201862, “PubChem BioAssay data set” (2004) are described below.

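Five concentrations, 48 hours, 96-well plates. At the GI50, growth is halved.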 Activity calls are given as the source filed them. No stated cut-off is given here; in the data, active = GI50 up to about 1.1 µM and inactive = higher. Bounds are passed on as bounds.

Test systems include A498; A549; ACHN; CAKI-1; COLO 205; EKVX; HCC 2998; HOP-92; IGROV-1; MOLT-4; NCI-H23; OVCAR-3; OVCAR-5; SF-268; SK-MEL-2; SW-620; UACC-62.
Holding throughout (assay): DTP human tumour cell line panel, 48 h

Turning to `Cc1ccc(NC(=O)CCc2nnc3s/c(=C\c4cccc([N+](=O)[O-])c4)c(=O)n23)cc1`, the GI50 (in general, the concentration giving 50% growth inhibition) in the test on A498 is > 100 µM (inactive); in the test on A549 it was > 100 µM (inactive); with ACHN, 84.7 µM (inactive); in the test with CAKI-1, > 100 µM (inactive); in the test on COLO 205, > 100 µM (inactive); in the test on EKVX, > 100 µM (inactive). Further, the GI50 was > 100 µM (inactive) with HCC 2998; 85.3 µM (inactive) in the test with HOP-92; > 100 µM (inactive) in the test on IGROV-1; > 100 µM (inactive) with MOLT-4; > 100 µM (inactive) in the test with NCI-H23; > 100 µM (inactive) in the test on OVCAR-3. In addition, the GI50 in the test with OVCAR-5 was > 100 µM (inactive); in the test with SF-268, > 100 µM (inactive); in the test with SK-MEL-2, > 100 µM (inactive); with SW-620, 19.3 µM (inactive); in the test on UACC-62, > 100 µM (inactive).

With `C/C(CC(=O)Nc1ccc(Cl)c(Cl)c1)=N/NC(=O)C[n+]1ccccc1`, the GI50 in the test on A498 was > 100 µM (inactive); in the test on A549 it was > 100 µM (inactive); in the test with ACHN it was > 100 µM (inactive); in the test on CAKI-1, > 100 µM (inactive); in the test on COLO 205, 31.8 µM (inactive); in the test on EKVX, > 100 µM (inactive). Further, the GI50 in the test with HCC 2998 is > 100 µM (inactive); in the test with HOP-92 it was > 100 µM (inactive); in the test on IGROV-1 it was > 100 µM (inactive); with MOLT-4, 94.2 µM (inactive); in the test with NCI-H23, > 100 µM (inactive); in the test with OVCAR-3 it was > 100 µM (inactive). Further, the GI50 with OVCAR-5, with SF-268, in the test with SK-MEL-2 and with UACC-62 was > 100 µM (inactive) in each case.

`Cc1ccc(Cl)c(NC(=O)C(=O)C(C(=O)c2ccncc2)C2OC(=O)c3ccccc32)c1` (stereo not given): the GI50 in the test with A498, in the test on A549, with ACHN, in the test with CAKI-1, in the test with COLO 205 and with EKVX was > 100 µM (inactive) in each case. In addition, the GI50 in the test with HCC 2998, in the test on HOP-92, in the test on IGROV-1, in the test with NCI-H23, in the test on SF-268 and with SW-620 was > 100 µM (inactive) in each case. Besides, the GI50 in the test on UACC-62 was > 100 µM (inactive).

For the compound `CN(CC(=O)O)S(=O)(=O)c1ccc(F)cc1`, the GI50 with A498, with A549, in the test on ACHN, in the test on CAKI-1, in the test with COLO 205 and with EKVX was > 100 µM (inactive) in each case. The GI50 with HCC 2998, in the test with HOP-92, in the test on IGROV-1, in the test on MOLT-4, in the test with NCI-H23 and with OVCAR-3 was > 100 µM (inactive) throughout. The GI50 in the test on OVCAR-5, with SF-268, in the test on SK-MEL-2, in the test on SW-620 and with UACC-62 was > 100 µM (inactive) throughout.

For `COc1cc2c[n+]3ccc4cc(OC)c(OC)cc4c3cc2cc1O`, the GI50 with A498, with A549, in the test with ACHN, with EKVX, in the test on HCC 2998 and in the test with HOP-92 was > 100 µM (inactive) throughout. Also, the GI50 in the test with IGROV-1, in the test on MOLT-4, in the test with NCI-H23, with OVCAR-5, in the test on SF-268 and in the test on SK-MEL-2 was > 100 µM (inactive) each time. Besides, the GI50 in the test on SW-620 and in the test with UACC-62 was > 100 µM (inactive) in each case.

Regarding `O=C1OC(c2ccccc2)C2CC3CC4(CCC3CN12)OCCO4` (stereo not given), the GI50 is > 100 µM (inactive) in the test with A498; > 100 µM (inactive) with A549; > 100 µM (inactive) with CAKI-1; > 100 µM (inactive) with COLO 205; > 100 µM (inactive) in the test with EKVX; 80 µM (inactive) with HOP-92. The GI50 is > 100 µM (inactive) with IGROV-1; > 100 µM (inactive) with MOLT-4; 36.9 µM (inactive) in the test with NCI-H23; > 100 µM (inactive) in the test with OVCAR-3; > 100 µM (inactive) with OVCAR-5; > 100 µM (inactive) in the test on SF-268. The GI50 with SK-MEL-2 was > 100 µM (inactive); with SW-620 it was > 100 µM (inactive); with UACC-62, 21.5 µM (inactive).

`COc1cc(C2C(C(=O)Nc3cc(F)c(F)cc3F)=C(C)NC(C)=C2C(=O)Nc2cc(F)c(F)cc2F)ccc1O`: the GI50 is 19.4 µM (inactive) in the test with A498; 24.6 µM (inactive) in the test on A549; 18.8 µM (inactive) in the test with ACHN; 12.3 µM (inactive) in the test on CAKI-1; 30.9 µM (inactive) in the test with COLO 205; 14.9 µM (inactive) in the test with EKVX. The GI50 in the test with HCC 2998 is 13.9 µM (inactive); in the test with HOP-92 it was 0.982 µM (active); with IGROV-1, 23.1 µM (inactive); in the test with MOLT-4, 11.3 µM (inactive); in the test with NCI-H23, 17.1 µM (inactive); in the test with OVCAR-3, 14.3 µM (inactive). Further, the GI50 with OVCAR-5 is 17.4 µM (inactive); in the test with SF-268 it was 15 µM (inactive); in the test with SK-MEL-2 it was 22.5 µM (inactive); in the test on SW-620, 37.7 µM (inactive).

On to `CCN(CC)c1ccc(/N=N/c2ccc([N+](=O)[O-])cc2OC(=O)/C=C/c2ccccc2)c(OC(=O)/C=C/c2ccccc2)c1`, for which the GI50 is > 26.9 µM (inactive) in the test on A498; 8.2 µM (inactive) with A549; 2.1 µM (inactive) in the test on ACHN; 84.1 µM (inactive) in the test with CAKI-1; > 100 µM (inactive) with COLO 205; 5.58 µM (inactive) in the test with EKVX. Besides, the GI50 in the test with HCC 2998 is 12.7 µM (inactive); in the test with HOP-92, > 100 µM (inactive); in the test on IGROV-1 it was 18.5 µM (inactive); with MOLT-4, 5.16 µM (inactive); in the test on NCI-H23, 12.2 µM (inactive); in the test with OVCAR-3 it was 3.18 µM (inactive). The GI50 in the test with SF-268 was 1.93 µM (inactive); in the test with SK-MEL-2 it was > 95.3 µM (inactive); in the test on SW-620 it was 7.57 µM (inactive); in the test on UACC-62 it was 8.11 µM (inactive).

In the case of `COC(=O)N/N=C(/Cc1occc(=O)c1O)C(=O)Nc1ccc([N+](=O)[O-])cc1[N+](=O)[O-]`, the GI50 in the test with A498, in the test on A549, in the test on ACHN, with CAKI-1, in the test on COLO 205 and in the test on EKVX was > 100 µM (inactive) throughout. Also, the GI50 with HCC 2998, in the test on HOP-92, with IGROV-1, with MOLT-4, in the test with NCI-H23 and in the test on OVCAR-5 was > 100 µM (inactive) in each case. In addition, the GI50 in the test with SF-268, in the test with SK-MEL-2, in the test with SW-620 and in the test with UACC-62 was > 100 µM (inactive) each time.
